The source of these data is patent US9242987B2, “Heterocyclyl pyrazolopyrimidine analogues as JAK inhibitors” (Cellzome Limited, priority 2009, dated 2016).

Experiment [1] deals with T1, JAK2 (Homo sapiens, UniProt O60674).
T1 construct: endogenous in cells; host or cells: Mixed Molt4/Ramos lysate (1:2)
Put plainly: Kinobeads assay, JAK2. The conditions noted are these: mixed Molt4/Ramos cell lysate, dot blot detection. Format: binding. On the procedure: (§1) The compounds of the present invention as described in the previous examples were tested in a Kinobeads™ assay as described for ZAP-70 (WO-A 2007/137867). Briefly, test compounds (at various concentrations) and the affinity matrix with the immobilized aminopyrido-pyrimidine ligand 24 were added to cell lysate aliquots and allowed to bind to the proteins in the lysate sample. After the incubation time the beads with captured proteins were separated from the lysate. Bound proteins were then eluted and the presence of JAK2 and JAK3 was detected and quantified using specific antibodies in a dot blot procedure and the Odyssey infrared detection system. Dose response curves for individual kinases were generated and IC50 values calculated. Kinobeads™ assays for ZAP-70 (WO-A 2007/137867) and for kinase selectivity profiling (WO-A 2006/134056) have been previously described.
(§2) The affinity matrix was washed two times with 15 mL of 1×DP buffer containing 0.2% NP40 (IGEPAL® CA-630, Sigma, #13021) and then resuspended in 1×DP buffer containing 0.2% NP40 (3% beads slurry).
(§3) 5×DP buffer: 250 mM Tris-HCl pH 7.4, 25% Glycerol, 7.5 mM MgCl2, 750 mM NaCl, 5 mM Na3VO4; filter the 5×DP buffer through a 0.22 μm filter and store in aliquots at −80° C. The 5×DP buffer is diluted with H2O to 1×DP buffer containing 1 mM DTT and 25 mM NaF.
(§4) Stock solutions of test compounds were prepared in DMSO. In a 96 well plate 30 μL solution of diluted test compounds at 5 mM in DMSO were prepared. Starting with this solution a 1:3 dilution series (9 steps) was prepared. For control experiments (no test compound) a buffer containing 2% DMSO was used.
(§5) Molt4 cells (ATCC catalogue number CRL-1582) and Ramos cells (ATCC catalogue number CRL-1596) were grown in 1 L Spinner flasks (Integra Biosciences, #182101) in suspension in RPMI 1640 medium (Invitrogen, #21875-034) supplemented with 10% Fetal Bovine Serum (Invitrogen) at a density between 0.15×10^6 and 1.2×10^6 cells/mL. Cells were harvested by centrifugation, washed once with 1×PBS buffer (Invitrogen, #14190-094) and cell pellets were frozen in liquid nitrogen and subsequently stored at −80° C. Cells were homogenized in a Potter S homogenizer in lysis buffer: 50 mM Tris-HCl, 0.8% NP40, 5% glycerol, 150 mM NaCl, 1.5 mM MgCl2, 25 mM NaF, 1 mM sodium vanadate, 1 mM DTT, pH 7.5. One complete EDTA-free tablet (protease inhibitor cocktail, Roche Diagnostics, 1873580) per 25 mL buffer was added. The material was dounced 10 times using a mechanized POTTER S, transferred to 50 mL falcon tubes, incubated for 30 minutes on ice and spun down for 10 minutes at 20,000 g at 4° C. (10,000 rpm in Sorvall SLA600, precooled). The supernatant was transferred to an ultracentrifuge (UZ)-polycarbonate tube (Beckmann, 355654) and spun for 1 hour at 100.000 g at 4° C. (33.500 rpm in Ti50.2, precooled). The supernatant was transferred again to a fresh 50 mL falcon tube, the protein concentration was determined by a Bradford assay (BioRad) and samples containing 50 mg of protein per aliquot were prepared. The samples were immediately used for experiments or frozen in liquid nitrogen and stored frozen at −80° C.
(§6) Cell lysate (approximately 50 mg protein per plate) was thawed in a water bath at room temperature and then stored on ice. To the thawed cell lysate 1×DP 0.8% NP40 buffer containing protease inhibitors (1 tablet for 25 mL buffer; EDTA-free protease inhibitor cocktail; Roche Diagnostics 1873580) was added in order to reach a final protein concentration of 10 mg/mL total protein. The diluted cell lysate was stored on ice. Mixed Molt4/Ramos lysate was prepared by combining one volume of Molt4 lysate and two volumes of Ramos lysate (ratio 1:2).
(§7) To a 96 well filter plate (Multiscreen HTS, BV Filter Plates, Millipore #MSBVN1250) were added per well: 100 μL affinity matrix (3% beads slurry), […], of compound solution, and 50 μL of diluted lysate. […]

The target of experiment [2] is T2, JAK3 (Homo sapiens, UniProt P52333).
T2 construct: endogenous in cells; host or cells: Mixed Molt4/Ramos lysate (1:2)
T2 sequence (P52333 1-1124): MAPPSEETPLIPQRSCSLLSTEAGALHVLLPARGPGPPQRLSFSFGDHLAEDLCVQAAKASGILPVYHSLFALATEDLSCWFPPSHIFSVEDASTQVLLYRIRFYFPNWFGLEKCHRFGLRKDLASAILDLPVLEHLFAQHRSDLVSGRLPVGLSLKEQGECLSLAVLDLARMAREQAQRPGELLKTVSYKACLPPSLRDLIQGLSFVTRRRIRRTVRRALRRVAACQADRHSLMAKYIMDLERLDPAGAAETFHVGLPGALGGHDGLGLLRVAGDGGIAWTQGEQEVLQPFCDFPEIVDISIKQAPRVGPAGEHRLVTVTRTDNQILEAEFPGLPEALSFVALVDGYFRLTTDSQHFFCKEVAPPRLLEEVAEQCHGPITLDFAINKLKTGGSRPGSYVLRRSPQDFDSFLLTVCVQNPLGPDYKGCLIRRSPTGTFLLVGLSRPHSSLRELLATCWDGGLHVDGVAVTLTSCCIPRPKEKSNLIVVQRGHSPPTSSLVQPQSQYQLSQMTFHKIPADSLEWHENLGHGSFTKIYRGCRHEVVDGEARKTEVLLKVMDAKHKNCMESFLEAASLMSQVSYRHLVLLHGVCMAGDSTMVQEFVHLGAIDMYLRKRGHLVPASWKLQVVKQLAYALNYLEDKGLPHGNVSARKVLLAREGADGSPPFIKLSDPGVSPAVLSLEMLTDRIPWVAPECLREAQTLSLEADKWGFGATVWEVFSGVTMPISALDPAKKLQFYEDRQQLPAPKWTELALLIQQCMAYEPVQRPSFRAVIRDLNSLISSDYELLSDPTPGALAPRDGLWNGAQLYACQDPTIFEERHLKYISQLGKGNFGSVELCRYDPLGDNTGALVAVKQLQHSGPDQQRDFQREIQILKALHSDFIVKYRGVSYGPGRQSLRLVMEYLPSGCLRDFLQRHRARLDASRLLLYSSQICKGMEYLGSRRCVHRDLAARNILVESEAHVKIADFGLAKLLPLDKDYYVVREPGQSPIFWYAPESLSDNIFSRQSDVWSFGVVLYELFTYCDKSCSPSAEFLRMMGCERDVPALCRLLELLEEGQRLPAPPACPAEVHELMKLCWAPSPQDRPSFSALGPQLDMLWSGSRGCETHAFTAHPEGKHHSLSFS
Put plainly: Kinobeads assay, JAK3. The format is binding. Particulars: mixed Molt4/Ramos cell lysate, dot blot detection. On the procedure: as §1, §2, §3, §4, §5, §6, §7

T1 sequence (O60674 whole entry): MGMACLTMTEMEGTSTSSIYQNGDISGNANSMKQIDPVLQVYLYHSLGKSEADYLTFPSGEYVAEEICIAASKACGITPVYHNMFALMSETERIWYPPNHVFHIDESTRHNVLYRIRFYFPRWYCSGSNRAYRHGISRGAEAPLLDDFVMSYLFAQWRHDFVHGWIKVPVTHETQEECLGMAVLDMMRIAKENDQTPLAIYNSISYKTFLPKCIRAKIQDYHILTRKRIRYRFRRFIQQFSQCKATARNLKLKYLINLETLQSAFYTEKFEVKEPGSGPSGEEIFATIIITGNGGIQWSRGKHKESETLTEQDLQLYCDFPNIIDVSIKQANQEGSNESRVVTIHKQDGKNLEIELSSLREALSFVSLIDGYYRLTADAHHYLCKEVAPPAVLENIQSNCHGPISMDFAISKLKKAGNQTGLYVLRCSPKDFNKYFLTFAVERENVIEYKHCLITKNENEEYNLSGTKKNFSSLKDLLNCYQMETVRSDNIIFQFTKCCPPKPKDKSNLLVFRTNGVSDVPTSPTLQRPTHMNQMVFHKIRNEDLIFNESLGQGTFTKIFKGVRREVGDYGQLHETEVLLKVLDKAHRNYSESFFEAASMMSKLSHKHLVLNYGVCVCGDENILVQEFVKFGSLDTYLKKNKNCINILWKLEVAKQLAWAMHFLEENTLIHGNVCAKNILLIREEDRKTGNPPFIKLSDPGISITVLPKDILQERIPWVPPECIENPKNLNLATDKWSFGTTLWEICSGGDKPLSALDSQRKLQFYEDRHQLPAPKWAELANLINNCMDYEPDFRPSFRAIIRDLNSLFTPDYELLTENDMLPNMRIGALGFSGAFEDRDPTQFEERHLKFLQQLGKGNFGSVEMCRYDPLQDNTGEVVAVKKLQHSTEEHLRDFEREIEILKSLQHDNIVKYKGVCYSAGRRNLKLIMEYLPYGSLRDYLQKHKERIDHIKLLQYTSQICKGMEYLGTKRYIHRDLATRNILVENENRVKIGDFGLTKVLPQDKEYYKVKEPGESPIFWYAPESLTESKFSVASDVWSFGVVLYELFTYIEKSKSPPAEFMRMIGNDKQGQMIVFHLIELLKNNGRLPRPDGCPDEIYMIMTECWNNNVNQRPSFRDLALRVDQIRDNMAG

In the case of `CNC(=O)Cn1cc(Nc2ncc3cnn(Cc4ccccc4C#N)c3n2)cn1` [Example 13, 2-(4-(1-(2-Cyanobenzyl)-1H-pyrazolo[3,4-d]pyrimidin-6-ylamino)-1H-pyrazol-1-yl)-N-methylacetamide], the results for the IC50 in experiment [1] and in experiment [2] were 0.1 to 1 µM and less than 0.1 µM, respectively.

Consider `Cn1cc(Nc2ncc3cnn(Cc4c(F)ccc(F)c4F)c3n2)cn1` [Example 98, N-(1-Methyl-1H-pyrazol-4-yl)-1-(2,3,6-trifluorobenzyl)-1H-pyrazolo[3,4-d]pyrimidin-6-amine], for which the IC50 was 0.1 to 1 µM in experiment [1] and less than 0.1 µM in experiment [2].

Turning to `Cn1cc(Nc2ncc3cnn(Cc4ccccc4C4CC4)c3n2)cn1` [Example 111, 1-(2-Cyclopropylbenzyl)-N-(1-methyl-1H-pyrazol-4-yl)-1H-pyrazolo[3,4-d]pyrimidin-6-amine], the values for the IC50 in experiment [1] and in experiment [2] were 1 to 10 µM and less than 0.1 µM, respectively.

Consider `Cc1cc(Nc2ncc3cnn(Cc4ccccc4C#N)c3n2)nn1C` [Example 9, 2-((6-(1,5-Dimethyl-1H-pyrazol-3-ylamino)-1H-pyrazolo[3,4-d]pyrimidin-1-yl)methyl)benzonitrile], for which the IC50 in experiment [1] is not below 10 µM; in experiment [2], 0.1 to 1 µM.

Consider `Cc1nn(CC(F)F)cc1Nc1ncc2cnn(Cc3cc(F)ccc3C#N)c2n1` [Example 151, 2-((6-((1-(2,2-Difluoroethyl)-3-methyl-1H-pyrazol-4-yl)amino)-1H-pyrazolo[3,4-d]pyrimidin-1-yl)methyl)-4-fluorobenzonitrile], for which the IC50 in experiment [1] is 0.1 to 1 µM; in experiment [2], less than 0.1 µM.

As for `Cn1cc(Nc2ncc3cnn(Cc4cccc(F)c4F)c3n2)cn1` [Example 31, 1-(2,3-Difluorobenzyl)-N-(1-methyl-1H-pyrazol-4-yl)-1H-pyrazolo[3,4-d]pyrimidin-6-amine], the IC50 was 1 to 10 µM in experiment [1] and less than 0.1 µM in experiment [2].

With `N#Cc1ccccc1Cn1ncc2cnc(Nc3cnn(CCO)c3)nc21` [Example 25, 2-((6-(1-(2-Hydroxyethyl)-1H-pyrazol-4-ylamino)-1H-pyrazolo[3,4-d]pyrimidin-1-yl)methyl)benzonitrile], the IC50 in experiment [1] is 1 to 10 µM; in experiment [2], less than 0.1 µM.

On to `N#Cc1ccccc1Cn1ncc2cnc(Nc3cnn(CC(F)F)c3)nc21` [Example 39, 2-((6-(1-(2,2-Difluoroethyl)-1H-pyrazol-4-ylamino)-1H-pyrazolo[3,4-d]pyrimidin-1-yl)methyl)benzonitrile], for which the IC50 in experiment [1] is 1 to 10 µM; in experiment [2] it was less than 0.1 µM.

For `Cn1cc(Nc2ncc3cnn(Cc4c(F)cccc4NS(C)(=O)=O)c3n2)cn1` [Example 142], the IC50 was 0.1 to 1 µM in experiment [1] and less than 0.1 µM in experiment [2].

Regarding `NS(=O)(=O)c1ccc(-n2ncc3cnc(Nc4cnn(CCO)c4)nc32)cc1` [Example 121, 4-(6-((1-(2-Hydroxyethyl)-1H-pyrazol-4-yl)amino)-1H-pyrazolo[3,4-d]pyrimidin-1-yl)benzenesulfonamide], the IC50 in experiment [1] was 0.1 to 1 µM; in experiment [2], less than 0.1 µM.

As to `Fc1c(Cl)cccc1Cn1ncc2cnc(Nc3cnn(CC(F)F)c3)nc21` [Example 156, 1-(3-Chloro-2-fluorobenzyl)-N-(1-(2,2-difluoroethyl)-1H-pyrazol-4-yl)-1H-pyrazolo[3,4-d]pyrimidin-6-amine], the results for the IC50 in experiment [1] and in experiment [2] were 1 to 10 µM and 0.1 to 1 µM, respectively.

In the case of `OCCn1cnc(Nc2ncc3cnn(Cc4ccccc4F)c3n2)c1` [Example 240, 2-(4-((1-(2-Fluorobenzyl)-1H-pyrazolo[3,4-d]pyrimidin-6-yl)amino)-1H-imidazol-1-yl)ethanol], the IC50 is 1 to 10 µM in experiment [1] and less than 0.1 µM in experiment [2].

With `Cn1cc(Nc2ncc3cnn(Cc4cccc5c4OCO5)c3n2)cn1` [Example 228, 1-(Benzo[d][1,3]dioxol-4-ylmethyl)-N-(1-methyl-1H-pyrazol-4-yl)-1H-pyrazolo[3,4-d]pyrimidin-6-amine], the IC50 in experiment [1] was 0.1 to 1 µM; in experiment [2], less than 0.1 µM.

For the compound `CC(C)S(=O)(=O)Nc1cccc(Cn2ncc3cnc(Nc4cnn(C)c4)nc32)c1` [Example 141, N-(3-((6-((1-Methyl-1H-pyrazol-4-yl)amino)-1H-pyrazolo[3,4-d]pyrimidin-1-yl)methyl)phenyl)propane-2-sulfonamide], the IC50 in experiment [1] is not below 10 µM; in experiment [2], 0.1 to 1 µM.

In the case of `COc1nn(CCO)cc1Nc1ncc2cnn(Cc3cccc(F)c3F)c2n1` [Example 50, 2-(4-(1-(2,3-Difluorobenzyl)-1H-pyrazolo[3,4-d]pyrimidin-6-ylamino)-3-methoxy-1H-pyrazol-1-yl)ethanol], the IC50 in experiment [1] is 1 to 10 µM; in experiment [2], less than 0.1 µM.

As to `NC(=O)c1ccccc1Cn1ncc2cnc(Nc3cnn(CC(F)F)c3)nc21` [Example 42, 2-((6-(1-(2,2-Difluoroethyl)-1H-pyrazol-4-ylamino)-1H-pyrazolo[3,4-d]pyrimidin-1-yl)methyl)benzamide], the IC50 is 1 to 10 µM in experiment [1] and less than 0.1 µM in experiment [2].

In the case of `CN(C)CCCn1cc(Nc2ncc3cnn(Cc4ccccc4F)c3n2)cn1` [Example 125, N-(1-(3-(Dimethylamino)propyl)-1H-pyrazol-4-yl)-1-(2-fluorobenzyl)-1H-pyrazolo[3,4-d]pyrimidin-6-amine], the IC50 was 0.1 to 1 µM in experiment [1] and less than 0.1 µM in experiment [2].

`OCCn1cc(Nc2ncc3cnn(Cc4ccccc4C4CC4)c3n2)cn1` [Example 260, 2-(4-((1-(2-Cyclopropylbenzyl)-1H-pyrazolo[3,4-d]pyrimidin-6-yl)amino)-1H-pyrazol-1-yl)ethanol]: the IC50 in experiment [1] is 1 to 10 µM; in experiment [2], less than 0.1 µM.

One may read the IC50 as the midpoint of a concentration-inhibition curve. Low values mean greater potency, high ones weaker potency.
